Data on 55 compounds can be found in ChEMBL document CHEMBL1126200, “Design and synthesis of novel FKBP inhibitors” (J Med Chem, 1992).

Non-standard residues stand in square brackets, D forms with d. Residues, ends and D or L forms follow the SMILES beside them. *: point of attachment. Pip = O=C(O)[C@@H]1CCCCN1; Cbz = O=C(OCc1ccccc1)*

This assay in a line: The compound was tested for the inhibitory activity of FK506 binding protein. The arrangement: species or system Homo sapiens.

For `COc1cccc(C(=O)CN2CCCC[C@H]2C(=O)N[C@@H](CCc2ccccc2)C(=O)OC(C)C)c1`, the IC50 – broadly, the concentration at which inhibition is half-maximal – is above 100 µM.
Compound `CC(C)[C@H](NC(=O)[C@H](Cc1ccccc1)NC(=O)[C@@H]1CCCCN1CC(=O)c1ccc2ccccc2c1)C(=O)N[C@@H](Cc1ccccc1)C(=O)N[C@H](C)c1ccccc1` came in with a half-inhibitory concentration (IC50) of 65 µM.
Turning to `C[C@@H](/C=C/c1ccc(C(=O)CN2CCCC2C(=O)NC(Cc2ccccc2)C(=O)OC(C)(C)C)s1)CO[Si](C)(C)C(C)(C)C` (stereo not given in full), the IC50 is 60 µM.
As for `CC(C)(C)OC(=O)N[C@@H](CC1CCCCC1)C(=O)CN1CCCC1C(=O)NC(Cc1ccccc1)C(=O)OC(C)(C)C` (stereo not given in full), the figure is above 100 µM; as for `CC(C)[C@H](NC(=O)[C@H](Cc1ccccc1)NC(=O)[C@@H]1CCCCN1CC(=O)c1ccc2ccccc2c1)C(=O)N[C@@H](Cc1ccccc1)C(=O)OC(C)(C)C`, 13 µM.
As for `COc1cccc(C(=O)CN2CCCC[C@H]2C(=O)N[C@@H](CC2CCCCC2)C(=O)OC(C)(C)C)c1`, the figure is 91 µM; as for `COc1cccc(C(=O)CN2CCCC[C@H]2C(=O)N[C@H](C(=O)OC(C)(C)C)c2cccs2)c1`, 23 µM.
As for `COC(=O)[C@H](Cc1ccccc1)NC(=O)[C@@H](NC(=O)[C@H](Cc1ccccc1)NC(=O)[C@@H]1CCCCN1CC(=O)c1ccc2ccccc2c1)C(C)C`, the figure is 0.3 µM; as for `COc1cccc(C(=O)CN2CCCC[C@H]2C(=O)N[C@H](Cc2ccccc2)C(=O)OC(C)(C)C)c1`, 81 µM.
Regarding `C=CCCC(NC(=O)[C@H](Cc1ccccc1)NC(=O)[C@@H]1CCCCN1CC(=O)c1cccc(OC)c1)C(=O)OC(C)(C)C` (stereo not given in full), the concentration for half-maximal inhibition (IC50) came out at 12 µM.
The compound `COc1cccc(C(=O)CN2CCCC[C@H]2C(=O)N[C@@H](CCC2CCCCC2)C(=O)OC(C)C)c1` returned a half-inhibitory concentration (IC50) above 100 µM.
Compound `CCC(C)[C@H](NC(=O)[C@@H]1CCCCN1CC(=O)c1cccc(OC)c1)C(=O)OC(C)(C)C` (stereo not given in full) returned an IC50 of 8 µM.
In the case of `COc1cccc(C(=O)CN2CCCC[C@H]2C(=O)N[C@@H](Cc2ccccc2)C(=O)N[C@H](/C=C/C2CCCC(=O)O2)C(C)C)c1` (stereo not given in full), the IC50 came out at 42 µM.
`COc1cccc(C(=O)CN2CCCC2C(=O)NC(Cc2ccccc2)C(=O)OC(C)(C)C)c1` (stereo not given) yielded a 50% inhibitory concentration (IC50) of 12 µM.
The same measure for `COc1cccc(C(=O)CN2CCCC[C@H]2C(=O)N[C@@H](Cc2ccccc2)C(=O)N[C@H](/C=C/COC(=O)C(F)(F)F)C(C)C)c1`: 1 µM; for `C[C@@H](/C=C/c1ccc(C(=O)C(=O)N2CCCC2C(=O)NC(Cc2ccccc2)C(=O)OC(C)(C)C)s1)CO` (stereo not given in full): 120 µM; for `COc1cccc(C(=O)CN2CCCC[C@H]2C(=O)N[C@@H](Cc2ccccc2)C(=O)N[C@H](C(=O)N[C@@H](Cc2ccccc2)C(=O)N[C@@H](C)c2ccccc2)C(C)C)c1`: 59 µM.
The same measure for `COc1cccc(C(=O)CN2CCCC[C@H]2C(=O)N[C@@H](Cc2ccccc2)C(=O)N[C@H](/C=C/I)C(C)C)c1`: 2 µM; for `COc1cccc(C(=O)CN2CCCC[C@H]2C(=O)N[C@@H](Cc2ccccc2)C(=O)NC(Cc2ccccc2)C(=O)OC(C)(C)C)c1` (stereo not given in full): 40 µM; for `CCC(C)C(NC(=O)[C@H](Cc1ccccc1)NC(=O)[C@@H]1CCCCN1CC(=O)c1cccc(OC)c1)C(=O)OC(C)(C)C` (stereo not given in full): 6 µM.
On to `COc1cccc(C(=O)CN2CCCC[C@H]2C(=O)N[C@@H](Cc2ccccc2)C(=O)N[C@H](C(=O)N[C@@H](Cc2ccccc2)C(=O)N[C@H](C)c2ccccc2)C(C)C)c1`, for which the IC50 is 85 µM.
The same measure for `COc1cccc(C(=O)CN2CCCC[C@H]2C(=O)N[C@@H](Cc2ccccc2)C(=O)NC(C(=O)OC(C)(C)C)C(C)C)c1` (stereo not given in full): 3 µM.
`COc1cccc(C(=O)CN2CCCC[C@H]2C(=O)N[C@@H](Cc2ccccc2)C(=O)N[C@H](/C=C/COC(=O)c2ccccc2)C(C)C)c1` showed a half-inhibitory concentration (IC50) of 62 µM.
As for `C[C@@H](/C=C/c1ccc(C(=O)C(=O)N2CCCC[C@H]2C(=O)NC(Cc2ccccc2)C(=O)OC(C)(C)C)s1)CO` (stereo not given in full), the figure is 9 µM; as for `COC1CCCC(C(=O)CN2CCCC2C(=O)NC(Cc2ccccc2)C(=O)OC(C)(C)C)C1` (stereo not given), above 100 µM.
In turn, `COc1cccc(C(=O)CN2CCCC[C@H]2C(=O)N[C@@H](Cc2ccc([N+](=O)[O-])cc2)C(=O)OC(C)(C)C)c1` displayed an IC50 of 27 µM.
The same measure for `COc1cccc(C(=O)CN2CCCC[C@H]2C(=O)N[C@@H](Cc2ccccc2)C(=O)N[C@H](C(=O)N[C@@H](Cc2ccccc2)C(=O)O[C@H](C)c2ccccc2)C(C)C)c1`: 23 µM.
On to `COc1cccc(C(=O)CN2CCCC[C@H]2C(=O)N[C@@H](Cc2ccccc2)C(=O)N[C@H](C(=O)N[C@@H](Cc2ccccc2)C(=O)O[C@@H](C)c2ccccc2)C(C)C)c1`, for which the IC50 was found to be 56 µM. This IC50 is about 2.4-fold higher than that of the compound before.
`CC(C)(C)OC(=O)C(CC1CCCCC1)NC(=O)[C@H](Cc1ccccc1)NC(=O)[C@@H]1CCCCN1CC(=O)c1ccc2ccccc2c1` (stereo not given in full): the 50% inhibitory concentration (IC50) was 35 µM.
The same measure for `COc1cccc(C(=O)CN2CCCC[C@H]2C(=O)N[C@@H](Cc2ccccc2)C(=O)N[C@H](C(=O)N[C@@H](Cc2ccccc2)C(=O)OC(C)(C)C)C(C)C)c1`: 20 µM.
Compound `C=CCOC/C=C/[C@@H](NC(=O)[C@H](Cc1ccccc1)NC(=O)[C@@H]1CCCCN1CC(=O)c1cccc(OC)c1)C(C)C` returned an IC50 of 3 µM.
The same measure for `CC(C)[C@H](NC(=O)[C@H](Cc1ccccc1)NC(=O)[C@@H]1CCCCN1CC(=O)c1ccc2ccccc2c1)C(=O)N[C@@H](Cc1ccccc1)C(=O)N[C@H](C)c1cccc2ccccc12`: 75 µM; for `C[C@@H](/C=C/c1ccc(C(=O)C(=O)N2CCCC2C(=O)OC(C)(C)C)s1)CO[Si](C)(C)C(C)(C)C` (stereo not given in full): above 100 µM; for `C[C@@H](/C=C/c1ccc(C(=O)C(=O)N2CCCC2C(=O)NC(Cc2ccccc2)C(=O)OC(C)(C)C)s1)CO[Si](C)(C)C(C)(C)C` (stereo not given in full): above 100 µM.
As for `CC(=O)OC/C=C/[C@@H](NC(=O)[C@H](Cc1ccccc1)NC(=O)[C@@H]1CCCCN1CC(=O)c1ccc2ccccc2c1)C(C)C`, the figure is 18 µM; as for `COc1cccc(C(=O)CN2CCCC[C@H]2C(=O)N[C@@H](Cc2ccccc2)C(=O)N[C@H](/C=C/COC(C)=O)C(C)C)c1`, 2 µM; as for `COc1cccc(C(=O)CN2CCCC[C@H]2C(=O)N[C@H](C(=O)OC(C)(C)C)c2ccsc2)c1`, 22 µM.
The same measure for `COc1cccc(C(=O)CN2CCCC[C@H]2C(=O)N[C@@H](Cc2ccccc2)C(=O)N[C@H](/C=C/[C@@H](C)CC(C)=O)C(C)C)c1`: 10 µM; for `COc1cccc(C(=O)CN2CCCC[C@H]2C(=O)N[C@@H](Cc2ccccc2)C(=O)NC(CC2CCCCC2)C(=O)OC(C)(C)C)c1` (stereo not given in full): 70 µM.
Take `CC(C)[C@@H](/C=C/C(=O)N[C@@H](C)c1ccccc1)NC(=O)[C@H](Cc1ccccc1)NC(=O)[C@@H]1CCCCN1CC(=O)c1ccc2ccccc2c1`: the IC50 stood at 35 µM.
The compound `COc1cccc(C(=O)CN2CCCC[C@H]2C(=O)N[C@@H](Cc2ccccc2)C(=O)N[C@H](/C=C/C2CCC(=O)C2)C(C)C)c1` (stereo not given in full) displayed a 50% inhibitory concentration (IC50) of 11 µM.
The compound `COc1cccc(C(=O)CN2CCCC[C@H]2C(=O)N[C@@H](Cc2ccccc2)C(=O)NC(CC(C)C)C(=O)OC(C)(C)C)c1` (stereo not given in full) returned an IC50 of 3 µM.
As for `COc1cccc(C(=O)CN2CCCC[C@H]2C(=O)N[C@@H](Cc2ccccc2)C(=O)N[C@H](/C=C/C(=O)N[C@@H](C)c2ccccc2)C(C)C)c1`, the figure is 40 µM; as for `CC(C)C(NC(=O)[C@H](Cc1ccccc1)NC(=O)[C@@H]1CCCCN1CC(=O)c1ccc2ccccc2c1)C(=O)OC(C)(C)C` (stereo not given in full), 1 µM; as for `COc1cccc(C(=O)CN2CCCC[C@H]2C(=O)N[C@@H](Cc2ccccc2)C(=O)OC(C)(C)C)c1`, 3 µM.
`C[C@@H](/C=C/c1ccc(C(=O)C(=O)N2CCCC2C(=O)OC(C)(C)C)s1)CO` (stereo not given in full) yielded an IC50 above 100 µM.
As to `COc1cccc(C(=O)CN2CCCC[C@H]2C(=O)N[C@@H](Cc2ccccc2)C(=O)N[C@H](C(=O)N[C@@H](Cc2ccccc2)C(=O)N[C@H](C)c2cccc3ccccc23)C(C)C)c1`, the IC50 was 30 µM.
The same measure for `COc1cccc(C(=O)CN2CCCC[C@H]2C(=O)N[C@@H](Cc2ccccc2)C(=O)NC(CCCCNC(=O)OCc2ccccc2)C(=O)OCc2ccccc2)c1` (stereo not given in full): above 100 µM; for `COc1cccc(C(=O)CN2CCCC[C@H]2C(=O)N[C@@H](Cc2ccccc2)C(=O)N[C@H](C(=O)Cc2ccccc2)C(C)C)c1`: 14 µM; for `CCOC(=O)/C=C/[C@@H](NC(=O)[C@H](Cc1ccccc1)NC(=O)[C@@H]1CCCCN1CC(=O)c1cccc(OC)c1)C(C)C`: 15 µM.
Consider `COC(=O)[C@H](Cc1ccccc1)NC(=O)[C@@H](NC(=O)[C@H](Cc1ccccc1)NC(=O)[C@@H]1CCCCN1CC(=O)c1ccc(-c2ccccc2)cc1)C(C)C`, for which the IC50 is 26 µM.
As for `COC(=O)[C@H](Cc1ccccc1)NC(=O)[C@@H](NC(=O)[C@H](Cc1ccccc1)NC(=O)[C@@H]1CCCCN1CC(=O)c1cccc(OC)c1)C(C)C`, the figure is 1 µM; as for `COc1cccc(C(=O)CN2CCCC[C@H]2C(=O)N[C@H](C(=O)OC(C)(C)C)C(C)C)c1`, 83 µM.
As for `COC(=O)[C@H](Cc1ccccc1)NC(=O)[C@@H](NC(=O)[C@H](Cc1ccccc1)NC(=O)[C@@H]1CCCCN1C(=O)OCc1ccccc1)C(C)C` (Cbz-[Pip]FVF-OMe), the figure is above 100 µM.
Turning to `COC(=O)[C@H](Cc1ccccc1)NC(=O)[C@@H](NC(=O)[C@H](Cc1ccccc1)NC(=O)[C@@H]1CCCCN1)C(C)C` (H-[Pip]FVF-OMe), the IC50 is above 100 µM.
